Experimental data published in patent publication US7452869B2, “NIP3 family of proteins” (University of Manitoba, priority 2000, dated 2008).
“And” between values parts separate entries of the source, which are not always exact repeats. Equal values may be shown once. Starred links: 1 amine or outer side, 2 acyl side, 3 side chain; linkers in the order of their positions; H or OH if unused. Positions of bridges follow the written chain, without caps; N, C: chain ends. Non-standard residues stand in square brackets, D forms with d. Residues, ends and D or L forms follow the SMILES beside them. Chains are numbered I, II in the order given. *: point of attachment. Actinocin(9to1) = Cc1c2oc3c(C)ccc(C(=O)[*:1])c3nc-2c(C(=O)[*:2])c(N)c1=O; NMeV = CN[C@H](C(=O)O)C(C)C; Cbz = O=C(OCc1ccccc1)*; Sar = CNCC(=O)O; CH2F = FC*

Key:
[1] = test system: 293T cells; assay: DNA fragmentation (TUNEL) in transfected 293T cells; type: cell-based; set-up: dose or concentration left out as unconfirmed
Method: DNA fragmentation was detected using the in situ cell death detection kit with fluorescein (Boehringer Mannheim) as per the manufacturer's recommendations in the presence or absence of […] Ac-zVAD-fmk or Ac-FA-fmk. Images were captured as described earlier. No fewer than 200 nuclei were scored manually for each sample. Annexin V staining was performed exactly as described by the manufacturer (Boehringer Mannheim), and samples were analyzed via flow cytometry.

[2] = test system: caspase 3-like proteases; assay: caspase activation, colorigenic cleavage of Ac-DEVD-pNA by lysates of transfected 293T cells; type: biochemical
Method: Lysates were collected from 293T cells, transiently transfected via the CaP04 method (Ray, R., et al., 1999), at the indicated times. Aliquots of these lysates were run under Laemmli sodium dodecyl sulfate-polyacrylamide gel electrophoresis (SDS-PAGE) conditions and immunoblotted with mouse monoclonal anti-PARP. Results were visualized with an enhanced chemiluminescence system (Amersham Pharmacia Biotech, Amersham, U. K.). Transfected 293T cells were also assayed for caspase cleavage via colorigenic cleavage of the peptide Ac-DEVD-pNA (Biomol, Plymouth Meeting, Pa.), according to the conditions outlined by Quignon et al. (Scaffidi, C., et al., 1998), using 100 mM peptide. Where appropriate, samples were preincubated with 500 nM Ac-DEVD-fmk for 30 minutes at room temperature. Data were acquired on a Multiskan MCC/340 (Titertek) plate reader at 405 nm.

[3] = test system: primary hippocampal neurons; assay: excitotoxic cell death of primary hippocampal neurons, trypan blue exclusion; type: cell-based, rat
Method: Primary hippocampal neurons were prepared from 18-day-old embryonic Sprague-Dawley rats as described previously by Haughey, N. J. et al. (2001). Briefly, hippocampal tissue was dissociated by gentle tituration in a calcium-free Hank's balanced salt solution and was centrifuged at 1000×g. Cells were resuspended in Dulbecco's modified Eagle's medium (DMEM)/F12 nutrient mixture containing 10% heat-inactivated fetal bovine serum and 1% antibiotic solution (104 IU of penicillin G/ml, 10 mg streptomycin/ml and 25 μg amphotericin B/ml) in 0.9% NaCl (Sigma, St Louis, Mo., USA). Hippocampal neurons were plated at a density of 2×10^5 cells/ml on 12-mm diameter poly d-lysine-coated glass coverslips. Three hours after plating, the media was replaced with serum-free Neurobasal media containing 1% B-27 supplement (Gibco, Rockville, Md., USA).
To determine the extent to which NMDA-type glutamate receptors were involved in BNIP3 expression and excitotoxic cell death, the inventors used the agonist NMDA (100 μM) in the absence or presence of the NMDA receptor antagonist MK-801 (10 μM). To determine the extent to which caspase activation contributes to BNIP3-mediated cell death, hippocampal cells were incubated in the absence or presence of the broad spectrum cell permeable caspase inhibitors z-VAD-FMK (50 μM) and BOC-D-FMK (50 μM); these inhibitors were applied 30 minutes prior to application of glutamate or NMDA. […]
(§1) In vitro cell death was estimated using trypan blue exclusion. Cells were incubated in 0.4% trypan blue solution for 30 minutes and then counted on a bright-field microscope. Nonviable cells were distinguished by their dark blue staining. To examine nuclear morphology, nuclear DNA was stained with Hoescht 33342. DNA fragmentation was detected by TUNEL using an in situ cell death detection kit with fluorescein. Statistical analyses were by ANOVA with Tukey's post-test.

[4] = test system: 293T cells; assay: cytochrome c release by indirect immunofluorescence, 293T; type: cell-based
Method: (§2) Mitochondria were isolated from CaP04-transfected 293T cells using 70 strokes (tight pestle) in a 1-ml Dounce homogenizer (Wheaton) in […] of CFS buffer as previously described (Thornberry, N. A., et al., 1998). Mitochondria were resuspended in H buffer (Thornberry, N. A., et al., 1998). Aliquots of […] of protein were analyzed on Laemmli SDS-15% PAGE gels and immunoblotted with anticytochrome c monoclonal antibody. Equal loading was ensured by probing the same blot with monoclonal antiactin. Results were visualized with enhanced chemiluminescence. Cytochrome c release was also determined via indirect immunofluorescence of transfected MCF-7 and 293T cells. Briefly, cells grown on coverslips were costained with Cy3-conjugated mouse anti-cytochrome c monoclonal antibody and an appropriate tag (HA for BNIP3 and FLAG for tBID), which was visualized with FITC-conjugated goat anti-rabbit IgG. Cells were also stained with Hoechst dye to determine apoptotic nuclear morphology. No fewer than 200 cells were scored for each sample. Fluorescence was visualized and captured using a Zeiss axiophot microscope equipped with a cooled charge-coupled device camera.

[5] = test system: PT pore; assay: mitochondrial Dcm (DiOC6), ROS production (HE) and PI staining by flow cytometry in BNIP3-transfected 293T cells; type: cell-based; settings: 293T cells, 8 hours after transfection
Method: Changes in mitochondrial function were determined by incubating 10 6 293T cells, transiently transfected via the CaP04 method, with either 1 mM JC-1, 40 nM DiOC6, or 2 mM dihydroethidium (HE) (all from Molecular Probes, Inc.) for 30 minutes at 37° C. in Hanks' balanced salt solution (Gibco-BRL). Cells were scored using a FACScalibur flow cytometer (Becton-Dickinson, San Jose, Calif.), and data were analyzed on Celiquest software, version 3.1 (Becton-Dickinson). Controls were performed in the presence or absence of […] mClCCP (Sigma) or an excess of 30% H2 02. For inhibition experiments, cyclosporin A (Sigma) or bongkrekic acid (a gift from J. A. Duine, Delft University, Delft, The Netherlands) was added 2 hours prior to transfection. All cells were harvested 8 hours after transfection and stained with 40 nM DiOC6, 2 mM HE, or 1 mg of propidium iodide (PI) (Sigma) per ml. In all cases, samples were gated to exclude cellular debris.

[6] = test system: MCF-7 cells; assay: cytochrome c release by indirect immunofluorescence, MCF-7; type: cell-based
Method: as §2

[7] = test system: MEFs; assay: b-galactosidase cell death assay in wild-type, Apaf-1, caspase 9 or caspase 3 deficient MEFs; type: cell-based, mouse
Method: (§3) Various doses of the peptide caspase inhibitor Ac-zVAD-fmk (Enzyme System Products, Dublin, Calif.) were applied to 1×10^5 293T cells cotransfected, using LipofectAmine reagent (Gibco-BRL), with 0.01 mg of the reporter plasmid pcDNA3bgal plus the indicated expression plasmids to a final amount of 0.75 mg of DNA (see FIG. 2), as adjusted with empty vector. Cells were fixed, stained, and evaluated 27 hours posttransfection as described previously (Miura, M. et al., 1993). Similar strategies were used to evaluate the expression of pcDNA1-p35 as a caspase inhibitor (1.95 mg of DNA total) and to determine the killing efficiency of BNIP3 expressed in MEF cells (1.2 mg of DNA with 0.3 mg of b-galactosidase).
Results are expressed as the mean […] SE from three independent experiments. […] N, N-Dimethyl formamide (DMF) was used to dilute the adriamycin.

[8] = test system: ventricular myocytes; assay: cell viability of ventricular myocytes, calcein acetoxymethyl ester / ethidium homodimer-1; type: cell-based; settings: for BNIP3-induced cell death of ventricular myocytes: z-VAD-fmk 25 to 100 μmol/L, dose dependent
Method: Ventricular myocytes were isolated from 1- to 2-day-old Sprague-Dawley rats (University of Manitoba, Winnipeg, Canada) and submitted to primary culture as reported (Kirshenbaum and Schneider, 1995). Myocytes were subjected to hypoxia for 24 hours in an air-tight chamber continually gassed with 95% N2-5% CO2, as previously reported (Moissac et al., 2000; Long et al., 1997; Tanaka et al., 1994). Adult rat hearts (n=3) were excised from adult rats (250 to 300 g) and subjected to global hypoxia for 1 hour on a modified Langendorff perfusion system with buffer continually gassed with 95% N2-5% CO2, as previously reported (Kirshenbaum, 1993). Heart failure was induced in rats by surgical ligation of the left anterior descending coronary artery, as previously reported (Dixon et al., 1992). Non-failing sham control hearts and those with heart failure were excised from animals 8 weeks after myocardial infarction. Hearts (n=3) were dissected to remove the infarcted scar tissue, and the left ventricular free wall was homogenized and analyzed by Western blot for BNIP3 expression. Animals were handled according to guidelines established by the University of Manitoba and Canadian Council on Animal Care.
The cDNAs for BNIP3 full-length (BNIP3) and carboxyl terminal transmembrane domain deletion mutant (BNIP3ΔTM) have been described previously (Vande et al., 2000). Recombinant adenoviruses encoding the full-length BNIP3 or transmembrane deletion mutant are designated AdBNIP3 or AdBNIP3ΔTM, respectively, and generated as reported previously (Kirshenbaum et al., 1993).
Cell viability was determined using the vital dyes 2 μmol/L calcein acetoxymethyl ester (green) to determine the number of living cells and 2 μmol/L ethidium homodimer-1 (red) (Molecular Probes) to identify the number of dead cells (Kirshenbaum and Schneider, 1995). The number of green cells versus red cells was used to determine changes in cell viability (Moissac et al., 2000). Cells were analyzed from at least n=3 independent myocyte isolations counting ≧200 cells for each condition tested. Data are expressed as mean±SE percent reduction from control.

[9] = test system: primary hippocampal neurons; assay: primary hippocampal neurons transfected with BNIP3 plasmids, DNA condensation and survival; type: cell-based, rat
Method: Transfection of cells was performed on day four in culture with LipofectAMINE 2000 […] according to manufacturer's protocol. Cells were transfected with a pcDNA3-BNIP3 plasmid encoding the full length of BNIP3 and a pcDNA3-BNIP3-163 plasmid that encodes a truncated form (the first 163 amino acids) of BNIP3 that lacks the functional transmembrane domain. Cells were used after 9 days in culture for excitotoxicity experiments. Neuronal cell death was assessed using trypan blue exclusion, morphological changes, and Hoescht 33342 staining. Morphological characteristics were examined on a Nikon Eclipse TE200 microscope and fluorescence was examined on a Zeiss Axioskop 2.
as §1

[10] = test system: 293T cells; assay: b-galactosidase cell death assay in transiently transfected 293T cells; type: cell-based
Method: as §3

[11] = inhibitor, 24 hours posttransfection

CC(=O)NC(Cc1ccccc1)C(=O)NC(C)C(=O)CF (stereo not shown) [Ac-FA-fmk]
DNA fragmentation (TUNEL) in parallel populations ([1]; Ac-FA-fmk): No effect

CC(=O)N[C@@H](CC(=O)O)C(=O)N[C@@H](CCC(=O)O)C(=O)N[C@H](C(=O)N[C@@H](CC(=O)O)C(=O)CF)C(C)C [Ac-DEVD-fmk]
proteolytic activity of lysates of BNIP3 or BNIP3DTM transfected cells with inhibitor ([2]; 500 nM Ac-DEVD-fmk): not inhibited
Ac-DEVD-pNA substrate cleavage in tBID-transfected cells with inhibitor ([2]; lysates preincubated with 500 nM Ac-DEVD-fmk): blocked

CN[C@H](CC(=O)O)C(=O)O [NMDA]
neuronal cell death (trypan blue exclusion) ([3]; 6 hours after application, p<0.01): significantly increased

BNIP3: full-length BNIP3, expressed from plasmid or adenovirus; mutation None
cytochrome c release (in words) [4]: only very low levels
DiOC6-low and HE-high cells [5]: 55%
cytochrome c release (in words) [6]: no significant cytochrome c release
cell death induced by transient transfection ([7]; wild-type and all mutant MEF lines): 50%
increase in myocyte death ([8]; adenovirus encoding full-length BNIP3 versus control virus, P<0.05): 8.3 fold
increase in Ac-DEVD-pNA substrate cleavage after transfection ([2]; 293T lysates harvested 1 to 36 hours posttransfection, versus untransfected controls): only marginal increases
neurons surviving glutamate toxicity ([9]; glutamate 100 μM at day 9 in culture, 5 days after transfection): 32%
BNIP3-positive neurons showing DNA condensation / DNA damage ([9]; transiently transfected hippocampal neurons): 81% and 85%

Cc1c2oc3c(C)ccc(C(=O)N[C@@H]4C(=O)N[C@H](C(C)C)C(=O)N5CCC[C@H]5C(=O)N(C)CC(=O)N(C)[C@@H](C(C)C)C(=O)O[C@@H]4C)c3nc-2c(C(=O)N[C@@H]2C(=O)N[C@H](C(C)C)C(=O)N3CCC[C@H]3C(=O)N(C)CC(=O)N(C)[C@@H](C(C)C)C(=O)O[C@@H]2C)c(N)c1=O [actinomycin D] (I: T[dV]P[Sar][NMeV] / II: T[dV]P[Sar][NMeV]; ester I:1-I:C, II:1-II:C; linker I:N-II:N via Actinocin(9to1))
number of trypan blue positive cells caused by glutamate toxicity ([3]; actinomycin D 1 mg/ml added, p<0.01, to untreated control levels): significantly decreased
cell death rates, drug alone ([3]; actinomycin D alone): did not affect

COC(=O)C[C@H](NC(=O)[C@H](C)NC(=O)[C@@H](NC(=O)OCc1ccccc1)C(C)C)C(=O)CF [Ac-zVAD-fmk] (Cbz-Val-Ala-Asp(OMe)-CH2F)
DNA fragmentation (TUNEL) in BNIP3 transfectants [1, 11]: partially inhibited
DNA fragmentation (TUNEL) in tBID-expressing cells [1, 11]: nearly completely inhibited
BNIP3-induced cell death in presence of caspase inhibitor ([10]; 293T cells transfected with BNIP3, evaluated 27 hours posttransfection, p35 plasmid up to 1.5 mg): unaffected
suppression of cell death of tBID or caspase 9/Apaf-1 transfectants ([10]; 293T cells, 27 hours posttransfection, same concentration of inhibitor): greater than 50%
cell death caused by glutamate or NMDA ([3]; z-VAD-FMK 50 μM alone, trypan blue 6 hours after glutamate or NMDA): did not prevent
BNIP3-induced cell death of ventricular myocytes ([8]; listed as z-VAD-fmk): prevented
BNIP3-induced cell death of ventricular myocytes ([8]; listed as z-VADfmk): suppressed

COc1cccc2c1C(=O)c1c(O)c3c(c(O)c1C2=O)C[C@@](O)(C(=O)CO)C[C@@H]3O[C@H]1C[C@H](N)[C@H](O)[C@H](C)O1 [adriamycin]
adriamycin-induced cell death in mutant MEFs ([7]; Apaf-1, caspase 9 or caspase 3 deficient MEFs, 3 mg of adriamycin per ml for 24 hours): profound resistance
